Read-outs that look alike come from different tables or passages of the source.
Experiments:
Test in all cases: DiscoverX KINOMEscan kinase profiling (468 assays)
Assay type in all cases: binding
human kinome [1] = molecular target: human kinome (Homo sapiens, UniProt P04629); conditions: kinase TRKA (Entrez NTRK1); compound concentration 1000 nM; read-out: Percent Control
In short: (§1)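 VIP152 was run in DMSO, alongside a DMSO control. Readout was qPCR of DNA-tagged kinase still bound to bead-immobilized biotinylated kinase ligands after compound competition.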

human kinome [2] = molecular target: human kinome (Homo sapiens, UniProt P07949, V804L); conditions: kinase RET(V804L) (Entrez RET); compound concentration 1000 nM; read-out: Percent Control
In short: as §1

human kinome [3] = molecular target: human kinome (Homo sapiens, UniProt P08581, Y1235D); conditions: MET(Y1235D); 100 nM; read-out: Percent Control
In short: as §1

human kinome [4] = molecular target: human kinome (Homo sapiens, UniProt P10721); conditions: 100 nM, read-out: Percent Control
human kinome (Homo sapiens, UniProt P10721), sequence (P10721 26-976): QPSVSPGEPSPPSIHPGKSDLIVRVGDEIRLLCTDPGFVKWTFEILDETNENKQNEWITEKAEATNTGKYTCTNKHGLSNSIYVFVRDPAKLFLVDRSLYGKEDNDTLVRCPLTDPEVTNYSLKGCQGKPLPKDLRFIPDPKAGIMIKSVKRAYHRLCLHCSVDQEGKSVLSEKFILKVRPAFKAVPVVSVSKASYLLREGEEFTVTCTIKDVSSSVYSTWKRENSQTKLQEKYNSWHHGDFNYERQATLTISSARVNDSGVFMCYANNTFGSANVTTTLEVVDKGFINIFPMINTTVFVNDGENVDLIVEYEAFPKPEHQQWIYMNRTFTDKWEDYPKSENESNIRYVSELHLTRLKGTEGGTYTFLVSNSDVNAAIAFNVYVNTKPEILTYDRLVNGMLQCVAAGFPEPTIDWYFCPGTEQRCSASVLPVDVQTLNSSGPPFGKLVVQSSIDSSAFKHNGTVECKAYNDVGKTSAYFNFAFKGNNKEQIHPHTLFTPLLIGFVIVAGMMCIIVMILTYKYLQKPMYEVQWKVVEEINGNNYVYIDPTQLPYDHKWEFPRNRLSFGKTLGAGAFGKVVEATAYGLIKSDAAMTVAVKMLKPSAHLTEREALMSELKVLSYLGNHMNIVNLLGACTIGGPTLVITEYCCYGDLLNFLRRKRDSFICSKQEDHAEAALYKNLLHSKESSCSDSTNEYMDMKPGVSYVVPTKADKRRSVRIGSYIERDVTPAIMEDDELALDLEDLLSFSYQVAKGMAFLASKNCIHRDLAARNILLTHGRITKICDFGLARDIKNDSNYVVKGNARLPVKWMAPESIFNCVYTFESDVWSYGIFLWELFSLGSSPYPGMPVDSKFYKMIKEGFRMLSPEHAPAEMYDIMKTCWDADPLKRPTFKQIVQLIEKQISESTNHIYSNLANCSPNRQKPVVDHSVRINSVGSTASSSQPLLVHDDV
In short: as §1

human kinome [5] = molecular target: human kinome (Homo sapiens, UniProt P10721, A829P); conditions: KIT(A829P); 100 nM; read-out: Percent Control
In short: as §1

human kinome [6] = molecular target: human kinome (Homo sapiens, UniProt P12931); conditions: kinase SRC (Entrez SRC); compound concentration 1000 nM; read-out: Percent Control
In short: as §1

human kinome [7] = molecular target: human kinome (Homo sapiens, UniProt P17612); conditions: read-out: Percent Control
In short: as §1

human kinome [8] = molecular target: human kinome (Homo sapiens, UniProt P21802); conditions: FGFR2; 100 nM; read-out: Percent Control
In short: as §1

human kinome [9] = molecular target: human kinome (Homo sapiens, UniProt P29597); conditions: compound concentration 1000 nM, read-out: Percent Control
human kinome (Homo sapiens, UniProt P29597), sequence (P29597 whole entry): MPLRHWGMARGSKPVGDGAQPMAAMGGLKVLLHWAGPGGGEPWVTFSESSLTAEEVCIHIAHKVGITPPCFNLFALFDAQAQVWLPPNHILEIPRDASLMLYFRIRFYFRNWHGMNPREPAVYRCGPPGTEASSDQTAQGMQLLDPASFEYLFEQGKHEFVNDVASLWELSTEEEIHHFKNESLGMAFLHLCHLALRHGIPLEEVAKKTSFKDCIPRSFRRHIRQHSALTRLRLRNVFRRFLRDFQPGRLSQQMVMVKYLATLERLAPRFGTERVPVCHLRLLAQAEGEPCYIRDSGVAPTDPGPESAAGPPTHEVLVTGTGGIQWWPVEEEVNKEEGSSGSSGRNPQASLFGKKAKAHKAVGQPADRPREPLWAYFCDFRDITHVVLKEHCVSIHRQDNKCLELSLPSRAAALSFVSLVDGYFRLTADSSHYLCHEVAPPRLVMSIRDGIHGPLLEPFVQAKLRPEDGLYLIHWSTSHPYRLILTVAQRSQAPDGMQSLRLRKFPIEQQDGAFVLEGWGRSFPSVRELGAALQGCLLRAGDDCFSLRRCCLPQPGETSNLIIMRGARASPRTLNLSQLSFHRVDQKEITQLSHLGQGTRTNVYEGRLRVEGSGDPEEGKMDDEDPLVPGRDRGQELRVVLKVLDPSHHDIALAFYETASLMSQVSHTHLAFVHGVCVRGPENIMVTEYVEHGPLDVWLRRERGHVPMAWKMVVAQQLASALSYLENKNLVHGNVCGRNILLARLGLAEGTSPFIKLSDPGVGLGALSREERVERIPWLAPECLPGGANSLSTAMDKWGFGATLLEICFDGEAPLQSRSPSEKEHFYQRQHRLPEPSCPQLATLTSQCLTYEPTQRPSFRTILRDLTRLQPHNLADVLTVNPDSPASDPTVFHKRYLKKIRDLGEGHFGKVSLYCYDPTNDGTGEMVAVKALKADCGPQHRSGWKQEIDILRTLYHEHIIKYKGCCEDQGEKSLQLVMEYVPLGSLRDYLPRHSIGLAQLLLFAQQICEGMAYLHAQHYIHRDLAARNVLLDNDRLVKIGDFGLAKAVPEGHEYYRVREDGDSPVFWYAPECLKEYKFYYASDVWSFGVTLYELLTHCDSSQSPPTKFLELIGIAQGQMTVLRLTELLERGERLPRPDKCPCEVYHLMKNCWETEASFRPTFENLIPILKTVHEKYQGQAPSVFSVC
In short: as §1

human kinome [10] = molecular target: human kinome (Homo sapiens, UniProt P31152); conditions: ERK4 (Entrez MAPK4); 100 nM; read-out: Percent Control
In short: as §1

human kinome [11] = molecular target: human kinome (Homo sapiens, UniProt P36894); conditions: BMPR1A; 100 nM; read-out: Percent Control
In short: as §1

human kinome [12] = molecular target: human kinome (Homo sapiens, UniProt P42336, E545K); conditions: read-out: Percent Control
human kinome (Homo sapiens, UniProt P42336, E545K), sequence (P42336 whole entry E545K): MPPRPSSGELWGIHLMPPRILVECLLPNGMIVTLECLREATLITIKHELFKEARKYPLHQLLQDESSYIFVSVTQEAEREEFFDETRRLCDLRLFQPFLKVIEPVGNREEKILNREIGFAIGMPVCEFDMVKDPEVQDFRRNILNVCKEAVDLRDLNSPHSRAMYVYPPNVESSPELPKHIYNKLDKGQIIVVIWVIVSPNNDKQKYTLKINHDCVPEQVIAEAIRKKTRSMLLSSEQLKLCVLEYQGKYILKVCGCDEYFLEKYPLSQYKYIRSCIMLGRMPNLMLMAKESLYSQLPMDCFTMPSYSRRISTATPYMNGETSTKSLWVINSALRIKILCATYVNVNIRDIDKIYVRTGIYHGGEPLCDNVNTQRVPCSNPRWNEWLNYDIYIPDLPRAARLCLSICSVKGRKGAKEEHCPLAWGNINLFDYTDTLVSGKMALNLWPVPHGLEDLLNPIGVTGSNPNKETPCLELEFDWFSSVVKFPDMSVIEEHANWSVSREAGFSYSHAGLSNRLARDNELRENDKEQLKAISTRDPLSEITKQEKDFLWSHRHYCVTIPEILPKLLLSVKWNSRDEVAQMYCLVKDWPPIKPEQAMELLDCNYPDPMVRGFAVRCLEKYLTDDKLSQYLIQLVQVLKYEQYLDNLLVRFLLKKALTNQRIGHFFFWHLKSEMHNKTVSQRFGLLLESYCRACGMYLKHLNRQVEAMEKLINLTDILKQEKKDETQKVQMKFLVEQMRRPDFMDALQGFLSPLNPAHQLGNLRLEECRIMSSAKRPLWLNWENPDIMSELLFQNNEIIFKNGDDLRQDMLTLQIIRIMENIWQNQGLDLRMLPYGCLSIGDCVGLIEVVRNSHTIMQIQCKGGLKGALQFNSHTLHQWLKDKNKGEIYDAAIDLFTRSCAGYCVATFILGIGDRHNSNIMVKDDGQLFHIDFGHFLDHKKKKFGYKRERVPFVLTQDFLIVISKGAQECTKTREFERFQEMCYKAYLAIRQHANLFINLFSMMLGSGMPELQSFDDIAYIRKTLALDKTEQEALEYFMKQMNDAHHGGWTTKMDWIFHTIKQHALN
In short: as §1

human kinome [13] = molecular target: human kinome (Homo sapiens, UniProt P42336, H1047Y); conditions: read-out: Percent Control
human kinome (Homo sapiens, UniProt P42336, H1047Y), sequence (P42336 whole entry H1047Y): as the sequence (P42336 whole entry E545K) above, with K545E, H1047Y counted along it
In short: as §1

human kinome [14] = molecular target: human kinome (Homo sapiens, UniProt P49137); conditions: MAPKAPK2; 100 nM; read-out: Percent Control
In short: as §1

human kinome [15] = molecular target: human kinome (Homo sapiens, UniProt P52564); conditions: MEK6 (Entrez MAP2K6); 100 nM; read-out: Percent Control
In short: as §1

human kinome [16] = molecular target: human kinome (Homo sapiens, UniProt Q00535); conditions: CDK5; 100 nM; read-out: Percent Control
In short: as §1

human kinome [17] = molecular target: human kinome (Homo sapiens, UniProt Q7L7X3); conditions: kinase TAOK1 (Entrez TAOK1); compound concentration 1000 nM; read-out: Percent Control
In short: as §1

human kinome [18] = molecular target: human kinome (Homo sapiens, UniProt Q86UX6); conditions: kinase YANK3 (Entrez STK32C); compound concentration 1000 nM; read-out: Percent Control
In short: as §1

human kinome [19] = molecular target: human kinome (Homo sapiens, UniProt Q8NFD2); conditions: ANKK1; 100 nM; read-out: Percent Control
In short: as §1

human kinome [20] = molecular target: human kinome (Homo sapiens, UniProt Q8TBX8); conditions: read-out: Percent Control
human kinome (Homo sapiens, UniProt Q8TBX8), sequence (Q8TBX8 whole entry): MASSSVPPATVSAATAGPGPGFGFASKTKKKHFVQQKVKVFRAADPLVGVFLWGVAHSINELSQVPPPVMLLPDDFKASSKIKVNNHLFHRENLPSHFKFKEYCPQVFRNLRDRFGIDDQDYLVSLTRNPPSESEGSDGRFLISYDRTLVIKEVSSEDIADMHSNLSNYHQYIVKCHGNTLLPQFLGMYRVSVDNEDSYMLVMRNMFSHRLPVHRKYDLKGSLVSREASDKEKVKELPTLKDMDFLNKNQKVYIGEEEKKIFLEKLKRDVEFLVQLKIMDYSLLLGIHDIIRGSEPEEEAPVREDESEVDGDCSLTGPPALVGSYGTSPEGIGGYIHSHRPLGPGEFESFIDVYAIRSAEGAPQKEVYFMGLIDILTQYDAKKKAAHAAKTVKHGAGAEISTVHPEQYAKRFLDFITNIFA
In short: as §1

human kinome [21] = molecular target: human kinome (Homo sapiens, UniProt Q9BQI3); conditions: EIF2AK1; 100 nM; read-out: Percent Control
In short: as §1

human kinome [22] = molecular target: human kinome (Homo sapiens, UniProt Q9BWU1); conditions: CDK11 (Entrez CDK19); 100 nM; read-out: Percent Control
In short: as §1

human kinome [23] = molecular target: human kinome (Homo sapiens, UniProt Q9BXA7); conditions: kinase TSSK1B (Entrez TSSK1B); compound concentration 1000 nM; read-out: Percent Control
In short: as §1

human kinome [24] = molecular target: human kinome (Homo sapiens, UniProt Q9BZL6); conditions: read-out: Percent Control
human kinome (Homo sapiens, UniProt Q9BZL6), sequence (Q9BZL6 whole entry): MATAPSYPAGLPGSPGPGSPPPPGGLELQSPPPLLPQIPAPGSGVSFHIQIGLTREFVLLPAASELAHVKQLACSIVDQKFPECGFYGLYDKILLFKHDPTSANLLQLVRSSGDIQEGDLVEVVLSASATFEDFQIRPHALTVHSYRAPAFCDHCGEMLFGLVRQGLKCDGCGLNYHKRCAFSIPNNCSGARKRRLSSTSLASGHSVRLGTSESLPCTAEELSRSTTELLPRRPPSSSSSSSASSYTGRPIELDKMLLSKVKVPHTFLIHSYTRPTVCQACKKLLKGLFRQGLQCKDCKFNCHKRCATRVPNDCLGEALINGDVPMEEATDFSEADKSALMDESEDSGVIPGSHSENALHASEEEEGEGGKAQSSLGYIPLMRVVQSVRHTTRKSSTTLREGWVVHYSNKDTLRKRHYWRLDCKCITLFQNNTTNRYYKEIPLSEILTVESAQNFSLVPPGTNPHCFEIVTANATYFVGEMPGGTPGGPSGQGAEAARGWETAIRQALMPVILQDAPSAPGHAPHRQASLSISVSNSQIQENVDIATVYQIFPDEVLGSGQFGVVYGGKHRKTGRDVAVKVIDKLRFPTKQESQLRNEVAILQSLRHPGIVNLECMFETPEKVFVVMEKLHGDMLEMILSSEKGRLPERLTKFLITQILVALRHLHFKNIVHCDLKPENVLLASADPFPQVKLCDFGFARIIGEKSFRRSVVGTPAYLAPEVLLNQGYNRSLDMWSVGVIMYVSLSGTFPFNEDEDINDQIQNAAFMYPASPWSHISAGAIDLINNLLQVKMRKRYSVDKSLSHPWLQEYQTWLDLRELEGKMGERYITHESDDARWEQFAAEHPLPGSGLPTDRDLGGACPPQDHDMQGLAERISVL
In short: as §1

human kinome [25] = molecular target: human kinome (Homo sapiens, UniProt Q9C098); conditions: DCAMKL3 (Entrez DCLK3); 100 nM; read-out: Percent Control
In short: as §1

human kinome [26] = molecular target: human kinome (Homo sapiens, UniProt Q9H4B4); conditions: read-out: Percent Control
In short: as §1

human kinome [27] = molecular target: human kinome (Homo sapiens, UniProt Q9UBE8); conditions: read-out: Percent Control
human kinome (Homo sapiens, UniProt Q9UBE8), sequence (Q9UBE8 whole entry): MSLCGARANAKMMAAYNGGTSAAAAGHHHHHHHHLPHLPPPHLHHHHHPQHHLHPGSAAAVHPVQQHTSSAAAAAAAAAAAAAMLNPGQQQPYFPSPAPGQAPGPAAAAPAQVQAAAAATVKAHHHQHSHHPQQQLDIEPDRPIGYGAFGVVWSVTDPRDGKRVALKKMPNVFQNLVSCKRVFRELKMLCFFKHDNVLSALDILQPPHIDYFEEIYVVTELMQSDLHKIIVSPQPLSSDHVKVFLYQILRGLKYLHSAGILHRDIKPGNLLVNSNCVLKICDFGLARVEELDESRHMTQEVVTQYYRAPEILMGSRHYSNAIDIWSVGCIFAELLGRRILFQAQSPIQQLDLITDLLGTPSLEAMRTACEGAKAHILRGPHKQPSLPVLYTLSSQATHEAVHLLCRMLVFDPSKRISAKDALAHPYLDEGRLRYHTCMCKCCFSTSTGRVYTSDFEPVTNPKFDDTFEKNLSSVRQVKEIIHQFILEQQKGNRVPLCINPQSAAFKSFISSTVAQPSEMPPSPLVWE
In short: as §1

human kinome [28] = molecular target: human kinome (Homo sapiens, UniProt Q9Y6R4); conditions: MAP3K4; 100 nM; read-out: Percent Control
In short: as §1

In the case of `COc1cc(F)ccc1-c1cc(Nc2cc(CS(C)(=N)=O)ccn2)ncc1F` (stereo not shown) [VIP152], the remaining binding at 1 µM (human kinome [1]) is reported as 9.8%, the remaining binding at 1 µM (human kinome [2]) is reported as 86% and the remaining binding at 0.1 µM (human kinome [3]) is reported as 82%. The remaining binding at 0.1 µM (human kinome [4]; KIT-autoinhibited) was 98%, the remaining binding at 0.1 µM (human kinome [4]; KIT) was 100% and the remaining binding at 0.1 µM (human kinome [5]) was 100%. It also gave a remaining binding at 1 µM (human kinome [6]) of 83%, a remaining binding at 0.1 µM (human kinome [7]; PKAC-alpha (Entrez PRKACA), 100 nM) of 97% and a remaining binding at 1 µM (human kinome [7]; kinase PKAC-alpha (Entrez PRKACA), compound concentration 1000 nM) of 100%. For the same compound, the remaining binding at 0.1 µM (human kinome [8]) was 100%, the remaining binding at 1 µM (human kinome [9]; kinase TYK2(JH1domain-catalytic) (Entrez TYK2)) was 44% and the remaining binding at 1 µM (human kinome [9]; kinase TYK2(JH2domain-pseudokinase) (Entrez TYK2)) was 4.8%. The remaining binding at 0.1 µM (human kinome [10]) was 100%, the remaining binding at 0.1 µM (human kinome [11]) was 100% and the remaining binding at 0.1 µM (human kinome [12]; PIK3CA(E545K), 100 nM) was 92%. The remaining binding at 1 µM (human kinome [12]; kinase PIK3CA(E545K) (Entrez PIK3CA), compound concentration 1000 nM) was 93%, the remaining binding at 0.1 µM (human kinome [13]; PIK3CA(H1047Y), 100 nM) was 74% and the remaining binding at 1 µM (human kinome [13]; kinase PIK3CA(H1047Y) (Entrez PIK3CA), compound concentration 1000 nM) was 85%. The remaining binding at 0.1 µM (human kinome [14]) was 100%, the remaining binding at 0.1 µM (human kinome [15]) was 100% and the remaining binding at 0.1 µM (human kinome [16]) was 100%. It also gave a remaining binding at 1 µM (human kinome [17]) of 62%, a remaining binding at 1 µM (human kinome [18]) of 95% and a remaining binding at 0.1 µM (human kinome [19]) of 100%. It also gave a remaining binding at 0.1 µM (human kinome [20]; PIP5K2C (Entrez PIP4K2C), 100 nM) of 52%, a remaining binding at 1 µM (human kinome [20]; kinase PIP5K2C (Entrez PIP4K2C), compound concentration 1000 nM) of 82% and a remaining binding at 0.1 µM (human kinome [21]) of 100%. The remaining binding at 0.1 µM (human kinome [22]) was 100%, the remaining binding at 1 µM (human kinome [23]) was 92% and the remaining binding at 0.1 µM (human kinome [24]; PRKD2, 100 nM) was 90%. It also gave a remaining binding at 1 µM (human kinome [24]; kinase PRKD2 (Entrez PRKD2), compound concentration 1000 nM) of 88%, a remaining binding at 0.1 µM (human kinome [25]) of 100% and a remaining binding at 0.1 µM (human kinome [26]; PLK3, 100 nM) of 91%. It also gave a remaining binding at 1 µM (human kinome [26]; kinase PLK3 (Entrez PLK3), compound concentration 1000 nM) of 92%, a remaining binding at 0.1 µM (human kinome [27]; NLK, 100 nM) of 100% and a remaining binding at 1 µM (human kinome [27]; kinase NLK (Entrez NLK), compound concentration 1000 nM) of 59%. For the same compound, the remaining binding at 0.1 µM (human kinome [28]) was 100%.
